In patent publication US12415770B2, “Modulators of liver receptor homologue 1 (LRH-1) and uses” (Emory University, priority 2017, dated 2025):

Experiments:
[1] = target: T1, LRH-1 (Homo sapiens, UniProt O00482); assay: Luciferase reporter assay (SHP-luc) in HeLa cells transfected with full-length LRH-1; type: cell-based; details: for EC50 (μM) / EC50: HeLa cells, SHP-luc reporter, 24 hours, 0.03-30 μM; for Relative Efficacy: fold increase over baseline (DMSO-treated cells) relative to the fold increase induced by RJW100
T1 construct: The transfected plasmids included full-length LRH-1 in a pCI vector; expressed in transfected cells; host or cells: HeLa
Method: EC50 and Relative Activity values were calculated from luciferase reporter assays.

[2] = target: T2, LRH-1 LBD (Homo sapiens, UniProt O00482); assay: Thermofluor (DSF) assay, purified LRH-1 LBD-His protein; type: binding; details: 50 μM compound, relative to DLPC-bound LRH-1; for ΔTm at 50 µM: read-out: ΔTm (mean +/− SEM) (° C.)
T2 construct: LRH-1 LBD (residues 299-541) in the pMSC7 vector was expressed in BL21 (DE3) pLysS E. coli; made in house; host or cells: E. coli BL21 (DE3) pLysS
Method: Thermofluor assays—Purified LRH-1 LBD-His protein (0.2 mg/ml) was incubated overnight with 50 μM of each compound at 4° C. The final DMSO concentration in the reactions was 1%. SYPRO orange dye (Invitrogen) was then added at a 1:1000 dilution. Reactions were heated at a rate of 0.5° C. per minute, using a StepOne Plus Real Time PCR System (ThermoFisher). […] Data were analyzed by first subtracting baseline fluorescence (ligands+SYPRO with no protein) and then fitting the curves using the Bolzman equation (GraphPad Prism, v6) to determine the Tm. […]

T1 sequence (O00482 whole entry): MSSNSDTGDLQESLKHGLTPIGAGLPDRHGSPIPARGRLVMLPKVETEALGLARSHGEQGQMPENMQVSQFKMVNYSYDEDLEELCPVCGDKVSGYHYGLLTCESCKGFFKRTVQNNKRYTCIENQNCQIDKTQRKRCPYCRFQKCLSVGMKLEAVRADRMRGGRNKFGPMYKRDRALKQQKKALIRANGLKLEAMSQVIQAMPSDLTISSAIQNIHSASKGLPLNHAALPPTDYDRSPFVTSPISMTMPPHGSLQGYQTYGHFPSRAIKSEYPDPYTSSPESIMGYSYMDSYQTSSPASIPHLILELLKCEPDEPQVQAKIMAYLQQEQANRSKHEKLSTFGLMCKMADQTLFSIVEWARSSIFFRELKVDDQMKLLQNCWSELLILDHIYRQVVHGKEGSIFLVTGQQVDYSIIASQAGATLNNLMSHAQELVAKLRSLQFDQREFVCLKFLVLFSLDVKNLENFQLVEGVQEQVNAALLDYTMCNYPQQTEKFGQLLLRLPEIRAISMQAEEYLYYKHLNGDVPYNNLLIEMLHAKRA
T2 sequence (O00482 299-541): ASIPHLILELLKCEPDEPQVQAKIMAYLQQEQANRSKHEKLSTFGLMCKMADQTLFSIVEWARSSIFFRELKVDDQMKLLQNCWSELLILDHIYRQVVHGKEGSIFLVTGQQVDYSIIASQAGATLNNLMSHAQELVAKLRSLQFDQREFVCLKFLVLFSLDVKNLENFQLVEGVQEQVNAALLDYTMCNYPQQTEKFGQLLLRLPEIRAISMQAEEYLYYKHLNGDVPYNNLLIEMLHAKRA

Compound | EC50 (μM) [1] | Relative Efficacy [1] | ΔTm at 50 µM [2] [°C] | ΔTm (mean +/− SEM) (° C.) [2] | EC50 [1] [µM]
C=C(c1ccccc1OC)[C@@]12CC[C@@H](O)C1CC(CCCCCC)=C2c1ccccc1 (mixture of isomers) [Compound 22, (Exo)-5-hexyl-3a-(1-(2-methoxyphenyl)vinyl)-4-phenyl-1,2,3,3a,6,6a-hexahydropentalen-1-ol] | cnc | 0.42 | < 1 |  | 
C=C(c1ccccc1)C12CCC(N)C1CC(CCCCCC)=C2c1ccccc1 (stereo not drawn) [Compound 33-endo, (Endo or Exo)-5-hexyl-4-phenyl-3a-(1-phenylvinyl)-1,2,3,3a, 6,6a-hexahydropentalen-1-amine] |  | 0.56 |  | ns (Ns = Tm changes were less than 1° C.) | 
C=C(c1ccccc1)C12CCC(O)C1CC(CCCCOP(=O)([O-])OCC[N+](C)(C)C)=C2c1ccccc1 (stereo not drawn) [Compound 5g, 4-(6-exo-hydroxy-3-phenyl-3a-(1-phenylvinyl)-1,3a,4,5,6,6a-hexahydropentalen-2-yl)butyl (2-(trimethylammonio)ethyl) phosphate] | cnc | 0.33 | < 1 |  | 
C=C(c1ccccc1)[C@@]12CC[C@@H](O)[C@@H]1CC(CCCCCCCC(=O)O)=C2c1ccccc1 (relative stereo) [Compound 9f, 8-(6-exo-hydroxy-3-phenyl-3a-(1-phenylvinyl)-1,3a,4,5,6,6a-hexahydropentalen-2-yl)octanoic acid] |  | 2.48 | 4.4 |  | 4
C=C(c1ccccc1)[C@@]12CC[C@@H](O)[C@@H]1CC(CCCCCCC(=O)O)=C2c1ccccc1 (relative stereo) [Compound 8f, 7-(6-exo-hydroxy-3-phenyl-3a-(1-phenylvinyl)-1,3a,4,5,6,6a-hexahydropentalen-2-yl)heptanoic acid] |  | 1.17 | 3.7 |  | 4
C=C(c1ccccc1)[C@@]12CC[C@@H](NC(C)=O)C1CC(CCCCCC)=C2c1ccccc1 (stereo partly drawn) [Compound 35-exo, N-((endo or exo)-5-hexyl-4-phenyl-3a-(1-phenylvinyl)-1,2,3,3a,6,6a-hexahydropentalen-1-yl) acetamide] |  |  | -1.1 |  | 17
CCCCCCC1=C(c2ccccc2)[C@]2(C(C)c3ccccc3)CC[C@H](O)C2C1 (stereo partly drawn) [Compound 39-endo, (Endo or Exo)-5-hexyl-4-phenyl-3a-(1-phenylethyl)-1,2,3,3a,6,6a-hexahydropentalen-1-ol] |  | 0.13 | 0.4 |  | 
C=C(c1ccccc1)C12CCC(O)C1CC(CCCCCCCCCCCOP(=O)([O-])OCC[N+](C)(C)C)=C2c1ccccc1 (stereo not drawn) [Compound 12g, 11-(6-exo-hydroxy-3-phenyl-3a-(1-phenylvinyl)-1,3a,4,5,6,6a-hexahydropentalen-2-yl)undecyl (2-(trimethylammonio)ethyl) phosphate] |  | 0.93 | -1.7 |  | 5.1
C=C(c1ccccc1)[C@@]12CC[C@@H](O)C1CC(CCCCCC)=C2c1cccc(N)c1 (mixture of isomers) [Compound 15g, (Exo)-4-(3-aminophenyl)-5-hexyl-3a-(1-phenylvinyl)-1,2,3,3a,6,6a-hexahydropentalen-1-ol] | cnc | 0.70 | < 1 |  | 
C=C(c1ccccc1)[C@@]12CC[C@@H](O)C1CC(CCCCCC)=C2c1cc(N)ccc1C (mixture of isomers) [Compound 17g, (Exo)-4-(5-amino-2-methylphenyl)-5-hexyl-3a-(1-phenylvinyl)-1,2,3,3a,6,6a-hexahydropentalen-1-ol] |  | 2.7 | < 1 |  | > 30
C=C(c1ccccc1)C12CCC(O)C1CC(CCCCCCCCCO)=C2c1ccccc1 (stereo not drawn) [Compound 10e, Exo-5-(9-hydroxynonyl)-4-phenyl-3a-(1-phenylvinyl)-1,2,3,3a,6,6a-hexahydropentalen-1-ol] |  | 1.30 | 4.1 |  | 1
C=C(c1ccccc1)C12CCC(O)C1CC(CCCCCO)=C2c1ccccc1 (stereo not drawn) [Compound 6e, Exo-5-(5-hydroxypentyl)-4-phenyl-3a-(1-phenylvinyl)-1,2,3,3a,6,6a-hexahydropentalen-1-ol] | cnc | 1.57 | 2.4 |  | 
C=C(c1ccccc1)[C@@]12CC[C@@H](N)C1CC(CCCCCC)=C2c1ccccc1 (stereo partly drawn) [Compound 33-exo, (Endo or Exo)-5-hexyl-4-phenyl-3a-(1-phenylvinyl)-1,2,3,3a, 6,6a-hexahydropentalen-1-amine] |  | 0.56 | -3 |  | 
C=C(c1ccccc1)[C@@]12CC[C@@H](O)C1CC(CCCCCC)=C2c1cc(N)cc(F)c1 (mixture of isomers) [Compound 18g, (Exo)-4-(3-amino-5-fluorophenyl)-5-hexyl-3a-(1-phenylvinyl)-1,2,3,3a,6,6a-hexahydropentalen-1-ol] | cnc | 0.99 | 1.5 |  | 
C=C(c1ccccc1)C12CCC(O)C1CC(CCCCC(=O)O)=C2c1ccccc1 (stereo not drawn) [Compound 6f, 5-(6-exo-hydroxy-3-phenyl-3a-(1-phenylvinyl)-1,3a,4,5,6,6a-hexahydropentalen-2-yl)pentanoic acid] | cnc | 0.60 | 1.3 |  | 
C=C(c1ccccc1)[C@@]12CC[C@@H](O)[C@@H]1CC(CCCCCCCO)=C2c1ccccc1 (relative stereo) [Compound 8e, Exo-5-(7-hydroxyheptyl)-4-phenyl-3a-(1-phenylvinyl)-1,2,3,3a,6,6a-hexahydropentalen-1-ol] |  | 1.26 | 3.7 |  | 0.2
C=C(c1ccccc1)[C@@]12CCC(=O)C1CC(CCCCCC)=C2c1ccccc1 (stereo in doubt) [Compound 27, 5-hexyl-4-phenyl-3a-(1-phenylvinyl)-3,3a,6,6a-tetrahydropentalen-1 (2H)-one] |  | −0.42 | < 1 |  | 
C=C(c1ccccc1)[C@@]12CC[C@@H](O)[C@@H]1CC(CCCCCCCCC(=O)O)=C2c1ccccc1 (relative stereo) [Compound 10f, 9-(6-exo-hydroxy-3-phenyl-3a-(1-phenylvinyl)-1,3a,4,5,6,6a-hexahydropentalen-2-yl)nonanoic acid] |  | 3.39 | 3 |  | 1.8
C=C(c1ccccc1)[C@@]12CC[C@@H](OS(C)(=O)=O)C1CC(CCCCCC)=C2c1ccccc1 (stereo partly drawn) [Compound 30-exo, (Endo or Exo) 5-hexyl-4-phenyl-3a-(1-phenylvinyl)-1,2,3,3a,6,6a-hexahydropentalen-1-yl methanesulfonate] |  | 0.14 | 1.1 |  | 1
CCCCCCC1=C(c2ccccc2)[C@]2(C(C)c3ccccc3)CC[C@@H](O)C2C1 (stereo partly drawn) [Compound 39-exo, (Endo or Exo)-5-hexyl-4-phenyl-3a-(1-phenylethyl)-1,2,3,3a,6,6a-hexahydropentalen-1-ol] |  | 0.06 | 0.1 |  | 
C=C(c1ccccc1)[C@@]12CCC(O)C1CC(CCCCCCCCOP(=O)(OCC)OCC)=C2c1ccccc1 (stereo partly drawn) [Compound 53-exo, (Endo or Exo) diethyl (8-(6-hydroxy-3-phenyl-3a-(1-phenylvinyl)-1,3a,4,5,6,6a-hexahydropentalen-2-yl)octyl)phosphate] |  | 0.37 |  | ns (Ns = Tm changes were less than 1° C.) | 
